Measurements published in patent publication US20210277003A1, “OGA INHIBITOR COMPOUNDS” (Janssen Pharmaceutica NV, priority 2018, published 2021).

Experiments:
[1] = molecular target: T1, recombinant human Meningioma Expressed Antigen 5 (MGEA5), also referred to as O-GlcNAcase (OGA) (Homo sapiens, UniProt O60502); test: OGA biochemical assay: inhibition of hydrolysis of fluorescein mono-ß-D-N-Acetyl-Glucosamine (FM-GlcNAc), fluorescence readout; conditions: FM-GlcNAc substrate; for Emax: read-out: Enzymatic Emax (%); for IC50: read-out: Enzymatic hOGA, pIC50 (converted)
T1 construct: Full length OGA enzyme was purchased at OnGene (cat #TP322411); purchased OnGene (so in the source)
T1 sequence (O60502 1-916): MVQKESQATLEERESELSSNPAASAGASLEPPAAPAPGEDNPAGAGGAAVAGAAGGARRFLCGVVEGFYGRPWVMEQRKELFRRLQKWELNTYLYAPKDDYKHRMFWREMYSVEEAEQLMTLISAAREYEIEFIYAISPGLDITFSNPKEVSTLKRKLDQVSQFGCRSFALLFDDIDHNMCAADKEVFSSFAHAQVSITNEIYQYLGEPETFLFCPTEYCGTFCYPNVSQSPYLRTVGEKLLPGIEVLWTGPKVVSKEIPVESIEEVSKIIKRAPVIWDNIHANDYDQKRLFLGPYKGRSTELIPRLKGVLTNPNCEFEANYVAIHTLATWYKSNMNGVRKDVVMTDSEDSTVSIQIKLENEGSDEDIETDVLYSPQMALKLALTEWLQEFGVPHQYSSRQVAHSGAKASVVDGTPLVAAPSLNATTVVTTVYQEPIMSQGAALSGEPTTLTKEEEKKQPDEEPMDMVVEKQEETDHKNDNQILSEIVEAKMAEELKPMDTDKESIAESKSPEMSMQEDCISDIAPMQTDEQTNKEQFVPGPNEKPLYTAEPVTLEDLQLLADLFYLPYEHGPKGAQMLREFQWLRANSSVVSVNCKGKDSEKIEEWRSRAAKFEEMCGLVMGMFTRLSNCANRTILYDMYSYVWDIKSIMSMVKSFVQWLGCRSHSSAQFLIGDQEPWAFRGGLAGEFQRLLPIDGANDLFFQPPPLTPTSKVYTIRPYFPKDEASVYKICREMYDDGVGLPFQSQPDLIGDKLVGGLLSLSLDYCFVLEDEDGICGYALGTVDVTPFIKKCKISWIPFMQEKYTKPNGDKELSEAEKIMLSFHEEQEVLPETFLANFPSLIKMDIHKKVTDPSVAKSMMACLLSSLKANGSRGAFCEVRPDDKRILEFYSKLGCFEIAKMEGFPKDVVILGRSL
Outline: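 Full-length recombinant human OGA (2 nM) was pre-incubated with compound for 60 min, then reacted with 100 uM FM-GlcNAc for 6 h at room temperature in 200 mM citrate/phosphate pH 7.2 with 0.005% Tween-20. Reactions were stopped with pH 11.0 carbonate and fluorescein read at 485/538 nm. IC50 and Hill coefficient came from curve fitting.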

[2] = test system: OGA in HEK293 cells inducible for P301L mutant human Tau (isoform 2N4R); test: OGA cellular assay: immunocytochemical detection of O-GlcNAcylated proteins (CTD110.6 antibody); type: cell-based; conditions: Homo sapiens, HEK293, 6 h, 6 hours incubation; for Emax: maximum = Thiamet G 200 uM; for EC50: read-out: Cellular hOGA, pEC50 (converted)
Protocol: HEK293 cells inducible for P301L mutant human Tau (isoform 2N4R) were established at Janssen. Thiamet-G was used for both plate validation (high control) and as reference compound (reference EC50 assay validation). OGA inhibition is evaluated through the immunocytochemical (ICC) detection of O-GlcNAcylated proteins by the use of a monoclonal antibody (CTD110.6; Cell Signaling, #9875) detecting 0-GlcNAcylated residues as previously described (Dorfmueller et al. 2010 Chemistry & biology, 17:1250). Inhibition of OGA will result in an increase of O-GlcNAcylated protein levels resulting in an increased signal in the experiment. Cell nuclei are stained with Hoechst to give a cell culture quality control and a rough estimate of immediate compounds toxicity, if any. ICC pictures are imaged with a Perkin Elmer Opera Phenix plate microscope and quantified with the provided software Perkin Elmer Harmony 4.1.
Cells were propagated in DMEM high Glucose (Sigma, #D5796) following standard procedures. 2 days before the cell assay cells are split, counted and seeded in Poly-D-Lysine (PDL) coated 96-wells (Greiner, #655946) plate at a cell density of 12,000 cells per cm^2 (4,000 cells per well) in 100p of Assay Medium (Low Glucose medium is used to reduce basal levels of GlcNAcylation) (Park et al. 2014 The Journal of biological chemistry 289:13519). At the day of compound test medium from assay plates was removed and replenished with 90 µl of fresh Assay Medium. 10p of compounds at a 10 fold final concentration were added to the wells. Plates were centrifuged shortly before incubation in the cell incubator for 6 hours. DMSO concentration was set to 0.2%. Medium is discarded by applying vacuum. For staining of cells medium was removed and cells washed once with 100 μl D-PBS (Sigma, #D8537). From next step onwards unless other stated assay volume was always 50p and incubation was performed without agitation and at room temperature. Cells were fixed in 50 μl of a 4% paraformaldehyde (PFA, Alpha aesar, #043368) PBS solution for 15 minutes at room temperature. […] Before analysis samples were washed 2 times manually for 5 minutes in ICC base buffer.
Imaging is performed using Perkin Elmer Phenix Opera using a water 20× objective and recording 9 fields per well. Intensity readout at 488 nm is used as a measure of O-GlcNAcylation level of total proteins in wells. To assess potential toxicity of compounds nuclei were counted using the Hoechst staining. IC50-values are calculated using parametric non-linear regression model fitting. As a maximum inhibition Thiamet G at a 200 uM concentration is present on each plate. In addition, a concentration response of Thiamet G is calculated on each plate.

| Emax [1] [%] | IC50 [1] [nM] | Enzymatic hOGA; pIC50 [1] | Structure (SMILES) | Emax [2] [%] | EC50 [2] [nM] |
| --- | --- | --- | --- | --- | --- |
| 104 | 3.8 | – | CCCCn1ccc2c(Nc3c(C)cc(C)cc3C)nccc21 [Compound 68] | 87 | 57.5 |
| 102 | 3.39 | – | Clc1cccc(Cl)c1Nc1nccc2c1ccn2CC1CC1 [Compound 69] | 82 | 55 |
| 103 | 1.7 | – | Clc1cccc(Cl)c1Nc1nccc2c1ccn2CCC1CC1 [Compound 70] | 82 | 37.2 |
| 101 | 2.24 | – | CCCCn1ccc2c(Nc3c(Cl)cccc3Cl)nccc21 [Compound 71] | 78 | 47.9 |
| 100 | 5.62 | – | CCCCn1ccc2c(Nc3c(C)cccc3C)nccc21 [Compound 72] | 78 | 53.7 |
| 101 | 2.69 | – | CCCCn1ccc2c(Nc3c(C)cc(F)cc3C)nccc21 [Compound 73] | 93 | 53.7 |
| 100 | 28.8 | – | CCCCn1ccc2c(Nc3c(Cl)cccc3Cl)ncc(F)c21 [Compound 74] | 40 | > 1000 |
| 102 | 2.82 | – | CCCCn1ccc2c(Nc3c(C)cc(C(=O)N4CCCC4)cc3C)nccc21 [Compound 75] | 85 | 6.03 |
| 101 | 2.95 | – | CCCCn1ccc2c(Nc3c(Cl)cc4c(c3C)OCCO4)nccc21 [Compound 76] | 100 | 23.4 |
| 99 | 4.79 | – | CCCCn1ccc2c(Nc3c(C)cc4c(ncn4C)c3C)nccc21 [Compound 77] | 83 | 7.41 |
| 103 | 3.24 | – | CCC(F)Cn1ccc2c(Nc3c(C)ccnc3C)nccc21 (centres unmarked) [Compound 78] | 96 | 7.94 |
| 100 | 28.8 | – | CCCCn1ccc2c(Nc3c(C)ccnc3C)ncc(F)c21 [Compound 80] | 73 | 372 |
| 102 | 9.55 | – | Cc1ccnc(C(F)F)c1Nc1nccc2c1ccn2CC1CCO1 (centres unmarked) [Compound 81] | 74 | 102 |
| 96 | 912 | – | CC(C)(C#N)Cn1ccc2c(Nc3c(Cl)cc(F)cc3Cl)nccc21 [Compound 83] | 8 | > 1000 |
| 86 | 2140 | – | Cc1ccnc(C)c1Nc1nccc2c1ccn2CC(C)(C)C#N [Compound 84] | 8 | > 1000 |
| 104 | 0.977 | – | Cc1ccnc(C(C)C)c1Nc1nccc2c1ccn2CC(F)(F)C1CC1 [Compound 85] | 94 | 0.708 |
| 101 | 21.9 | – | CCCCn1ccc2c(Nc3c(C)cncc3C(F)(F)F)nccc21 [Compound 86] | 71 | 309 |
| 102 | 4.79 | – | CCCCn1ccc2c(Nc3c(C)cc4c(cnn4C)c3C)nccc21 [Compound 87] | 87 | 12.9 |

| Emax [1] [%] | IC50 [1] [nM] | Enzymatic hOGA; pIC50 [1] | Structure (SMILES) | Emax [2] [%] | EC50 [2] [nM] |
| --- | --- | --- | --- | --- | --- |
| 103 | 4.07 | – | CCCCn1ccc2c(Nc3c(C)cc4c(c3C)CC(=O)N(C)C4)nccc21 [Compound 88] | 95 | 10.7 |
| 102 | – | 7.31 | Cc1ccnc(C)c1Nc1nccc2c1ccn2CCC(C)(F)F [Compound 90] | 62 | 363 |
| 102 | – | 8 | FC1(F)CC(Cn2ccc3c(Nc4c(Cl)cccc4Cl)nccc32)C1 [Compound 91] | 73 | 79.4 |
| 103 | – | 7.38 | Cc1ccnc(C)c1Nc1nccc2c1ccn2CC1CC(F)(F)C1 [Compound 92] | 75 | 151 |
| 104 | – | 7.61 | FC1(F)CC1CCn1ccc2c(Nc3c(Cl)cccc3Cl)nccc21 (centres unmarked) [Compound 95] | 63 | 525 |
| 102 | – | 7.1 | Cc1ccnc(C)c1Nc1nccc2c1ccn2CCC(F)F [Compound 96] | 60 | 513 |
| 101 | – | 7.9 | FC(F)CCn1ccc2c(Nc3c(Cl)cccc3Cl)nccc21 [Compound 97] | 78 | 347 |
| 103 | 3.24 | – | CCCCn1ccc2c(Nc3c(C)cc(CF)cc3C)nccc21 [Compound 101] | 83 | 57.5 |
| 100 | – | 7.54 | Cc1cncc(Cl)c1Nc1nccc2c1ccn2CC1CC1 [Compound 110] | 48 | 363 |
| 102 | – | 8.88 | CCC(F)(F)Cn1ccc2c(Nc3c(C)ccnc3C(C)C)nccc21 [Compound 112] | 92.3 | ~1.82 |
| 106 | – | 8.9 | CCC(F)(F)Cn1ccc2c(Nc3c(Cl)cccc3Cl)nccc21 [Compound 113] | 93 | 7.94 |
| 100 | – | 7.03 | Cc1ccnc(OC(F)F)c1Nc1nccc2c1ccn2CC1CC(F)(F)C1 [Compound 114] | 49.6 | 871 |
| 99.6 | – | 7.2 | Cc1ccnc(C(F)F)c1Nc1nccc2c1ccn2CC1CC(F)(F)C1 [Compound 115] | 52.3 | ~891 |
| 104 | – | 7.98 | Cc1cc(OC(F)F)cc(Cl)c1Nc1nccc2c1ccn2CC1CC(F)(F)C1 [Compound 116] | 61.8 | 55 |
| 101 | – | 8.26 | Cc1ccnc(C(C)C)c1Nc1nccc2c1ccn2CC1CC(F)(F)C1 [Compound 117] | 89.6 | 44.7 |
| 102 | – | 7.89 | Cc1cc(C(F)(F)F)cc(C)c1Nc1nccc2c1ccn2CC1CC(F)(F)C1 [Compound 118] | 71.7 | 74.1 |
| 105 | – | 8 | Cc1ccnc(OC(F)F)c1Nc1nccc2c1ccn2CC1CCO1 (centres unmarked) [Compound 119] | 80.3 | 102 |
